Assay results taken from PMC8219539 (Journal of Atherosclerosis and Thrombosis, 2020).

Target: S1P receptor 2 (S1P2/EDG-5) (Homo sapiens, UniProt O95136)
Experiment: Fura2 intracellular Ca2+ assay
Type: cell-based

Sequence of S1P receptor 2 (S1P2/EDG-5) (O95136 whole entry): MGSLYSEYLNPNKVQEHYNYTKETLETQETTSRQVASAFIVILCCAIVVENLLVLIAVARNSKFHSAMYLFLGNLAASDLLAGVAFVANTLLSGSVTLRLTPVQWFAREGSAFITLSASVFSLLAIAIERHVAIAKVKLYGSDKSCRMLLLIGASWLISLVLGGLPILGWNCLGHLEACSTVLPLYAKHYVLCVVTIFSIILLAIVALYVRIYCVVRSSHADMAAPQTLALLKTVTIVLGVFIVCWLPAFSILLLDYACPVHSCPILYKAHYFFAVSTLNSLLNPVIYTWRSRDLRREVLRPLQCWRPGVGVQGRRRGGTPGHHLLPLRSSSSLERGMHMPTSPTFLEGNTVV

Cc1nn(C)c2nc(NNC(=O)Nc3c(Cl)cncc3Cl)cc(C(C)C)c12 [JTE-013]
IC50: 5.3 nM

ONO-5430514
IC50: 5.7 nM
